Where a SMILES comes first, the peptide text is derived from it. [ ]: non-standard residue; d: D form. pGlu = O=C1CC[C@@H](C(=O)O)N1; Thz = O=C(O)[C@@H]1CSCN1

The target in one experiment is T1, Progesterone receptor (Homo sapiens, UniProt P06401).
T1 sequence (P06401 whole entry): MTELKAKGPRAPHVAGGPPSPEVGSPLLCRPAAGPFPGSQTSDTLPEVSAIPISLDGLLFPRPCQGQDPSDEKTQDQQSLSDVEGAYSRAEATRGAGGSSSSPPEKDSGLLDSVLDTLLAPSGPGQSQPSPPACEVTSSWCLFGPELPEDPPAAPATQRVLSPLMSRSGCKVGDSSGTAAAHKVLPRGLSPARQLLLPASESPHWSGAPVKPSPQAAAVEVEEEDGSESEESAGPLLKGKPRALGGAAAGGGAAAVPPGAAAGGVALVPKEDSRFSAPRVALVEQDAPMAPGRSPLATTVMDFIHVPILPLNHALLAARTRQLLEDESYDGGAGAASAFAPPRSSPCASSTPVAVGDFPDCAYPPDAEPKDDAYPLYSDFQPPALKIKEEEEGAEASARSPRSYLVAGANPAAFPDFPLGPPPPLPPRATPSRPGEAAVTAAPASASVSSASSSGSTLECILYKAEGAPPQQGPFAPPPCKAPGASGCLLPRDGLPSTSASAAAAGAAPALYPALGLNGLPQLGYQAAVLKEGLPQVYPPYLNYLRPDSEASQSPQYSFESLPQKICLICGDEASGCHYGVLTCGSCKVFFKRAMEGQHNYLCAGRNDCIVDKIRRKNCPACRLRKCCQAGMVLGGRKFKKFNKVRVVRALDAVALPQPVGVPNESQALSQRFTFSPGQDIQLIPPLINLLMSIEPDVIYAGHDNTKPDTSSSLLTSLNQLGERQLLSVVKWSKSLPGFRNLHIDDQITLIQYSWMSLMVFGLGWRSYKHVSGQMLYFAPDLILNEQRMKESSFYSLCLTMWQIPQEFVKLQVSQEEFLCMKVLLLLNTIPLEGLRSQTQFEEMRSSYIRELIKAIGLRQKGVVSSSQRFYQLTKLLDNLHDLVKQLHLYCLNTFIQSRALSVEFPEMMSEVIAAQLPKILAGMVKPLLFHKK
Format: functional.

The target of the next experiment is T2, Adenosine receptor A1 (Homo sapiens, UniProt P30542).
T2 sequence (P30542 whole entry): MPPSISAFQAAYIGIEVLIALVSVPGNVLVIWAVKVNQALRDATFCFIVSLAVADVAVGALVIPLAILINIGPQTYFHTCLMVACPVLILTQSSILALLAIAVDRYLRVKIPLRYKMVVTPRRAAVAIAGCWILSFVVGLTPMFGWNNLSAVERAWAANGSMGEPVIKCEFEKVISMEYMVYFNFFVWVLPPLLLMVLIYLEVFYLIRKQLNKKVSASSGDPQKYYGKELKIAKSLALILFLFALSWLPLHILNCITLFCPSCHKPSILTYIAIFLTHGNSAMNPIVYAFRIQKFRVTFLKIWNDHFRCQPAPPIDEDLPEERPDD

In experiment [1] the target is T3, 5-hydroxytryptamine receptor 3A (Homo sapiens, UniProt P46098).
T3 sequence (P46098 whole entry): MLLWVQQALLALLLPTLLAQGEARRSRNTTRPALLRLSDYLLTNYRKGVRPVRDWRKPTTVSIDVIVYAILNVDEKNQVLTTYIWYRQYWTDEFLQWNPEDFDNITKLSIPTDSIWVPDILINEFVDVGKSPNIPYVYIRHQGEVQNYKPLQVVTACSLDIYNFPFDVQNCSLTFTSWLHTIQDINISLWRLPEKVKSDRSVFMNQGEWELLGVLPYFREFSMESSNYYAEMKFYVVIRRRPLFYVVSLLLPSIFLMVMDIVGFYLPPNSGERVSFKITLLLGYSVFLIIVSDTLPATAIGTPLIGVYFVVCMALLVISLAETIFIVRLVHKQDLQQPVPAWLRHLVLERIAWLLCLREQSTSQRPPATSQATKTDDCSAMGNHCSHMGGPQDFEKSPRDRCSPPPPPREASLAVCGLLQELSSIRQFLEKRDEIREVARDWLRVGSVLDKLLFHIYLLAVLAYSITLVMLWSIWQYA
Format: functional.

A further experiment has as its target T4, Adenosine receptor A3 (Homo sapiens, UniProt P0DMS8).
T4 sequence (P0DMS8 whole entry): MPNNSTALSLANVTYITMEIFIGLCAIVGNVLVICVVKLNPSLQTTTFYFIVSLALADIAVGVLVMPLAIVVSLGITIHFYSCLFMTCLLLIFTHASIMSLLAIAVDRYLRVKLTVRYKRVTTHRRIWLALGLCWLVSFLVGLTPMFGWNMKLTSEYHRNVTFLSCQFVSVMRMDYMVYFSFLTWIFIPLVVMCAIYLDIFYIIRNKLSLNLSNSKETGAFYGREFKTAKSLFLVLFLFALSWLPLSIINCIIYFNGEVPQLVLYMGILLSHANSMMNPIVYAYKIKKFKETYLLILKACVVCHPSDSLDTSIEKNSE

Experiment [2] addresses T5, 5-hydroxytryptamine receptor 1A (Homo sapiens, UniProt P08908).
T5 sequence (P08908 whole entry): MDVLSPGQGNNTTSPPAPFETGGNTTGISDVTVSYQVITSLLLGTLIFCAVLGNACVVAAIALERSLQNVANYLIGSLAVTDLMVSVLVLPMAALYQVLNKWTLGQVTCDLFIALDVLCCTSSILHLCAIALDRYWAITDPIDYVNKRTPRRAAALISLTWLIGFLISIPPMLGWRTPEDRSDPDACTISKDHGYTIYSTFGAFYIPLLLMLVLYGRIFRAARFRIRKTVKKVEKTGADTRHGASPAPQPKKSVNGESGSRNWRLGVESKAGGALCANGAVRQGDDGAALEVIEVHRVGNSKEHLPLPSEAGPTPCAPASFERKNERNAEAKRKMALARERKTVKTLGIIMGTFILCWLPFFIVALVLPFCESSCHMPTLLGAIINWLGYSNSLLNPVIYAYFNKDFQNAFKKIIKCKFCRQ
The class given is functional, cell-based.

For experiment [3], the target named is T6, Alpha-1A adrenergic receptor (Homo sapiens, UniProt P35348).
T6 sequence (P35348 whole entry): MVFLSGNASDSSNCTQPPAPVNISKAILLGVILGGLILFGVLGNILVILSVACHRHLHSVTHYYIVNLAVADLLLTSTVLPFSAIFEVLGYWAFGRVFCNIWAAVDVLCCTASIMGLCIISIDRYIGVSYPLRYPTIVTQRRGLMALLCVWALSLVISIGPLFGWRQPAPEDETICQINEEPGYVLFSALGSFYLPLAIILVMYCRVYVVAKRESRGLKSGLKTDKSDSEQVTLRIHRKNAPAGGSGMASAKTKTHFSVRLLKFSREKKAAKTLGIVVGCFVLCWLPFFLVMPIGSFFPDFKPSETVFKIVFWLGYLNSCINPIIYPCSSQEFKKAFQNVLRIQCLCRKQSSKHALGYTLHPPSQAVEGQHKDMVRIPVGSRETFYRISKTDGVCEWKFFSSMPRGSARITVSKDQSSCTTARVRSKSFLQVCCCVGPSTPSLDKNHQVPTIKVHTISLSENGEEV
Format: functional, cell-based.
Also: assay procedure not described here.

The term AC50 denotes the concentration giving half of the maximal activity seen. Higher therefore signals weaker potency. With `CC(CN(C)C)C(C)(O)Cc1ccc(Cl)cc1` (configuration not stated) [CLOBUTINOL], the half-maximal activity concentration (AC50) at Progesterone receptor was more than 30 µM; on Adenosine receptor A1 it was more than 30 µM; in experiment [1], more than 30 µM; on Adenosine receptor A3, more than 30 µM; in experiment [2], more than 10 µM; in experiment [3], more than 30 µM.
In the case of `Oc1ccc(CCNCCCCCCNCCc2ccccc2)cc1O` [DOPEXAMINE], the AC50 on Progesterone receptor is more than 30 µM; at Adenosine receptor A1, more than 30 µM; in experiment [1], more than 30 µM; on Adenosine receptor A3, 12 µM; in experiment [2], more than 30 µM; in experiment [3], more than 30 µM.
On to `CCN1CC(CCN2CCOCC2)C(c2ccccc2)(c2ccccc2)C1=O` (configuration not stated) [DOXAPRAM], for which the half-maximal activity concentration (AC50) (at Progesterone receptor; on Adenosine receptor A1; in experiment [1]; at Adenosine receptor A3; in experiment [2]; in experiment [3]) was more than 30 µM in each case.
Consider `CCc1cc2c(s1)-n1c(C)nnc1CN=C2c1ccccc1Cl` [ETIZOLAM], for which the concentration at half-maximal activity (AC50) (on Progesterone receptor; on Adenosine receptor A1; in experiment [1]; on Adenosine receptor A3; in experiment [2]; in experiment [3]) was more than 30 µM in each case.
As to `CCOC(=O)c1ncn2c1CN(C)C(=O)c1cc(F)ccc1-2` [FLUMAZENIL], the AC50 (on Progesterone receptor; on Adenosine receptor A1; in experiment [1]; on Adenosine receptor A3; in experiment [2]; in experiment [3]) was more than 30 µM throughout.
For the compound `CC/C=C\C/C=C\C/C=C\C/C=C\C/C=C\CCCC(=O)OCC` [ICOSAPENT ETHYL], the concentration at half-maximal activity (AC50) on Progesterone receptor is 3.5 µM; on Adenosine receptor A1, more than 30 µM; in experiment [1], more than 30 µM; at Adenosine receptor A3, 18 µM; in experiment [2] it was more than 30 µM; in experiment [3], more than 30 µM.
`NNC(=O)c1ccncc1` [ISONIAZID]: the concentration at half-maximal activity (AC50) at Progesterone receptor is more than 30 µM; at Adenosine receptor A1, more than 30 µM; in experiment [1], more than 30 µM; at Adenosine receptor A3, 32.7 µM; in experiment [2], more than 30 µM; in experiment [3] it was more than 30 µM.
Regarding `COc1ccc(CN2CCN(C(c3ccc(F)cc3)c3ccc(F)cc3)CC2)c(OC)c1OC` [LOMERIZINE], the AC50 is more than 30 µM on Progesterone receptor; more than 30 µM on Adenosine receptor A1; more than 30 µM in experiment [1]; 17 µM on Adenosine receptor A3; more than 30 µM in experiment [2]; more than 30 µM in experiment [3].
For `COc1ccc2cc(CCC(C)=O)ccc2c1` [NABUMETONE], the concentration at half-maximal activity (AC50) at Progesterone receptor is more than 10 µM; at Adenosine receptor A1, more than 10 µM; in experiment [1], more than 30 µM; on Adenosine receptor A3 it was more than 10 µM; in experiment [2], more than 10 µM; in experiment [3] it was more than 30 µM.
Regarding `O=C(NCCO[N+](=O)[O-])c1cccnc1` [NICORANDIL], the AC50 (on Progesterone receptor; at Adenosine receptor A1; in experiment [1]; at Adenosine receptor A3; in experiment [2]; in experiment [3]) was more than 30 µM in each case.
`O=c1[nH]c2ccccc2n1CCCN1CCN(C(c2ccccc2)c2ccccc2)CC1` [OXATOMIDE]: the half-maximal activity concentration (AC50) at Progesterone receptor is more than 30 µM; on Adenosine receptor A1, more than 30 µM; in experiment [1] it was more than 30 µM; on Adenosine receptor A3, 15 µM; in experiment [2], more than 30 µM; in experiment [3], more than 30 µM.
For `COc1cc2[nH]c(C)c(CCN3CCN(c4ccccc4)CC3)c2cc1OC` [OXYPERTINE], the AC50 on Progesterone receptor was more than 30 µM; on Adenosine receptor A1 it was more than 30 µM; in experiment [1] it was more than 30 µM; at Adenosine receptor A3, 20 µM; in experiment [2], more than 30 µM; in experiment [3], more than 30 µM.
Regarding `c1ccc(C2(N3CCCCC3)CCCCC2)cc1` [PHENCYCLIDINE], the AC50 (at Progesterone receptor; on Adenosine receptor A1; in experiment [1]; at Adenosine receptor A3; in experiment [2]; in experiment [3]) was more than 30 µM in each case.
Consider `OC[C@H]1O[C@@H](Oc2cc(O)cc(/C=C/c3ccc(O)cc3)c2)[C@H](O)[C@@H](O)[C@@H]1O` [PICEID], for which the AC50 (at Progesterone receptor; on Adenosine receptor A1; in experiment [1]; on Adenosine receptor A3; in experiment [2]; in experiment [3]) was more than 30 µM each time.
Consider `O=C1CC[C@@H](C(=O)N2CSC[C@H]2C(=O)O)N1` [PIDOTIMOD] ([pGlu]-[Thz]-OH), for which the AC50 (on Progesterone receptor; at Adenosine receptor A1; in experiment [1]; at Adenosine receptor A3; in experiment [2]; in experiment [3]) was more than 30 µM in each case.
For `COc1cc(C(=O)OCc2cccc(COC(=O)c3cc(OC)c(OC)c(OC)c3)n2)cc(OC)c1OC` [PIROZADIL], the AC50 (at Progesterone receptor; at Adenosine receptor A1; in experiment [1]; at Adenosine receptor A3; in experiment [2]; in experiment [3]) was more than 30 µM throughout.
With `CCC(NC(C)C)C(O)c1ccc(O)c2[nH]c(=O)ccc12` (configuration not stated) [PROCATEROL], the AC50 (at Progesterone receptor; at Adenosine receptor A1; in experiment [1]; on Adenosine receptor A3; in experiment [2]; in experiment [3]) was more than 30 µM each time.

(Values after ChEMBL document CHEMBL5291721, “A preclinical secondary pharmacology resource illuminates target-adverse drug reaction associations of marketed drugs” (Nat Commun, 2023).)
